How the values were obtained:
Homo sapiens [1] = species: Homo sapiens; test: Compound was tested for inhibition of ADP induced platelet aggregation by using human platelet rich plasma (PRP) assay; type: functional
Homo sapiens [2] = species: Homo sapiens; test: Compound was tested for inhibition of ADP induced platelet aggregation by using human platelet rich plasma(PRP) assay; type: functional

IC50 (Homo sapiens [1])	IC50 (Homo sapiens [2])	Structure (SMILES)
200 nM		CCCCOC(=O)N[C@@H](CNC(=O)c1cc(OCC2CCN(C(=N)N)CC2)no1)C(=O)OC
	60 nM	CCCCOC(=O)N[C@@H](CNC(=O)c1cc(OCc2ccc(C(=N)N)cc2)no1)C(=O)O
	50 nM	CCCCOC(=O)N[C@@H](CNC(=O)c1cc(OCc2ccc(C(=N)N)cc2)no1)C(=O)OC
	32 nM	CCCCOC(=O)N[C@@H](CNC(=O)c1cccc(COc2ccc(C(=N)N)cc2)c1)C(=O)OC
